Reference: US20170081338A1, “SUBSTITUTED HETEROARYL COMPOUNDS AND METHODS OF USE” (Sunshine Lake Pharma Co., Ltd., priority 2015, published 2017)
pIC50: −log10 of the molar value.

Tests used:
[1] = Pharmacokinetics after intravenous and oral administration in rats; assay type: in vivo; conditions: for Clearance (CL) after iv dosing / AUC(0-t) / half-life / Vd: dose 1 mg/kg, iv dosing; for F: oral bioavailability; for AUC(0-t) / half-life / Vd: rat, plasma; for Vd: read-out: Vss
Procedure: The LC/MS/MS system used in the analysis consists of an Agilent 1200 Series vacuum degasser, binary pump, well-plate autosampler, thermostatted column compartment, the Agilent G6430 Triple Quadrupole Mass Spectrometer with an electrosprayionization (ESI) source. Quantitative analysis was carried out using MRM mode. The parameters for MRM transitions are in the Table A.
An Agilent XDB-C18, 2.1×30 mm, 3.5 μM column was used for the analysis. 5 μL of the samples were injected. Analysis condition: The mobile phase was 0.1% formic acid in water (A) and 0.1% formic acid in methanol (B). The flow rate was 0.4 mL/min. And the gradient of Mobile phase was in the Table B.
Alternatively, an Agilent 6330 series LC/MS/MS spectrometer equipped with G1312A binary pumps, a G1367A autosampler and a G1314C UV detector were used in the analysis. An ESI source was used on the LC/MS/MS spectrometer. The analysis was done in positive ion mode as appropriate and the MRM transition for each analyte was optimized using standard solution. A Capcell MP-C18 100×4.6 mm I.D., […] column (Phenomenex, Torrance, Calif., USA) was used during the analysis. The mobile phase was 5 mM ammonia acetate, 0.1% MeOH in water (A): 5 mM ammonia acetate, 0.1% MeOH in acetonitrile (B) (70/30, v/v). The flow rate was 0.6 mL/min. Column was maintained at ambient temperature. 20 μL of the samples were injected.
The compounds disclosed herein are assessed in pharmacokinetic studies in mice, rats, dogs or monkeys. The compounds are administered as a water solution, 2% HPMC+1% TWEEN®80 in water solution, 5% DMSO+5% solutol in saline, 4% MC suspension or capsule. For the intravenous administration, the animals are generally given at 0.5, 1 or 2 mg/kg dose. For the oral (p.o.) dosing, mice and rats are generally given 0.5, 1, 5 or 10 mg/kg dose, and dogs and monkeys are generally given 10 mg/kg dose. The blood samples (0.3 mL) are drawn at 0.25, 0.5, 1.0, 2.0, 3.0, 4.0, 6.0, 8.0, 12 and 24 h time points or 0.083, 0.25, 0.5, 1.0, 2.0, 4.0, 6.0, 8.0 and 24 h time points and centrifuged at 3,000 or 4000 rpm for 2 to 10 min. The plasma solutions are collected, and stored at −20° C. or −70° C. until analyzed by LC/MS/MS as described above.

[2] = target: T1, Aurora-A (h) (Homo sapiens, UniProt O14965); test: Aurora-A (h) kinase assay; assay type: biochemical
T1 construct: purchased Millipore UK Ltd (contract assay service)
T1 sequence (O14965 1-403): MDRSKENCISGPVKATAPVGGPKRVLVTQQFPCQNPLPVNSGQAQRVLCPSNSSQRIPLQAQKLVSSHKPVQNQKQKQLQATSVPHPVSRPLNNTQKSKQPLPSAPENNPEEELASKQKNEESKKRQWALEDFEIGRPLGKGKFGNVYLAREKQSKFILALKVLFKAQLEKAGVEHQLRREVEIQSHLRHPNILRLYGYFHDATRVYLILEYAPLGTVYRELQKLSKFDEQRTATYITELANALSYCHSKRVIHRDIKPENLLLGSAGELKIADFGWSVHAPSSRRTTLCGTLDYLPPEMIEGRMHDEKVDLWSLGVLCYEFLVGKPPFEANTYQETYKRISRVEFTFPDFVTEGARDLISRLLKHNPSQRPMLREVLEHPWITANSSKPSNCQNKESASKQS
Procedure: The above assay procedure can be used to determine the IC50 for inhibition and/or the inhibition constant, Ki. The IC50 is defined as the concentration of compound required to reduce the enzyme activity by 50% under the condition of the assay. The IC50 value is estimated by preparing a 10 point curve using a 1/2 log dilution series (for example, a typical curve may be prepared using the following compound concentrations: 3 μM, 1 μM, 0.3 μM, 0.1 μM, 0.03 μM, 0.01 μM, 0.003 μM, 0.001 μM, 0.0003 μM and 0 μM).
Aurora-A (h) is incubated with 8 mM MOPS pH 7.0, 0.2 mM EDTA, 200 μM LRRASLG (Kemptide), 10 mM MgAcetate and [γ-^33P-ATP] (specific activity approx. 500 cpm/pmol, concentration as required). The reaction is initiated by the addition of the MgATP mix. After incubation for 40 minutes at room temperature, the reaction is stopped by the addition of 3% phosphoric acid solution. 10 μL of the reaction is then spotted onto a P30 filtermat and washed three times for 5 minutes in 75 mM phosphoric acid and once in methanol prior to drying and scintillation counting.
The kinase assays described herein were performed at Millipore UK Ltd, Dundee Technology Park, Dundee DD2 1SW, UK.

[3] = Compound stability in rat liver microsomes; assay type: in vitro ADME; conditions: pH 7.4; for half-life at 5 μM: rat liver microsomes 0.5 mg protein/mL, compound 5 μM, NADPH, 37° C., read-out: Rat T1/2; for CLint scaled at 5 μM: rat liver microsomes, in vivo CLint extrapolated
Procedure: (§1) Human or rat liver microsomes incubations were conducted in duplicate in polypropylene tubes. The typical incubation mixtures consisted of human or rat liver microsomes (0.5 mg protein/mL), compounds of interest (5 μM) and NADPH (1.0 mM) in a total volume of 200 μL potassium phosphate buffer (PBS, 100 mM, pH 7.4). Compounds were dissolved in DMSO and diluted with PBS such that the final concentration of DMSO was 0.05%. The enzymatic reactions were commenced with the addition of protein after a 3-min preincubation and incubated in a water bath open to the air at 37° C. Reactions were terminated at various time points (0, 5, 10, 15, 30, 60 min) by adding equal volume of ice-cold acetonitrile. The samples were stored at −80° C. until LC/MS/MS assays.
(§2) The concentrations of compounds in the incubation mixtures of human or rat liver microsomes were determined by a LC/MS/MS method. The ranges of the linearity in the concentration range were determined for each tested compounds.
(§3) A parallel incubation was performed using denatured microsomes as the negative control, and reactions were terminated at various time points (0, 15, 60 min) after incubation at 37° C.
(§4) Dextromethorphan (70 μM) was selected as the positive control, and reactions were terminated at various time points (0, 5, 10, 15, 30, 60 min) after incubation at 37° C. Both positive and negative control samples were included in each assay to ensure the integrity of the microsomal incubation system.
(§5) The concentrations of compounds in human or rat liver microsome incubations were plotted as a percentage of the relevant zero time point control for each reaction. The in vivo CLint were extrapolated (ref.: Naritomi, Y.; Terashita, S.; Kimura, S.; Suzuki, A.; Kagayama, A.; and Sugiyama, Y.; Prediction of human hepatic clearance from in vivo animal experiments and in vitro metabolic studies with liver microsomes from animals and humans. Drug Metab. Dispos., 2001, 29: 1316-1324).

[4] = Compound stability in human liver microsomes; assay type: in vitro ADME; conditions: pH 7.4; for half-life at 5 μM: human liver microsomes 0.5 mg protein/mL, compound 5 μM, NADPH, 37° C., read-out: Human T1/2; for CLint scaled at 5 μM: human liver microsomes, in vivo CLint extrapolated
Procedure: as §1, §2, §3, §4, §5

Structure (SMILES) | Clearance (CL) after iv dosing [1] [mL/min/kg] | F [1] [%] | AUC(0-t) [1] [ng·h/mL] | half-life [1] [min] | Vd [1] [L/kg] | pIC50 [2] | half-life at 5 μM [3] [min] | CLint scaled at 5 μM [3] [mL/min/kg] | half-life at 5 μM [4] [min] | CLint scaled at 5 μM [4] [mL/min/kg]
Cn1cc(Nc2ncc(Cl)c(N[C@@H]3COC4C3OC[C@@H]4NS(=O)(=O)Cc3ccccc3)n2)cn1 (stereo partly drawn) [Ex. 19, N-((3S,6R)-6-((5-chloro-2-((1-methyl-1H-pyrazol-4-yl)amino)pyrimidin-4-yl)amino)hexahydrofuro[3,2-b]furan-3-yl)-1-phenylmethanesulfonamide] | 44.8 | 28.2 | 374 | 52.8 | 2.37 | 8.00 | – | – | – | –
CC(C)CS(=O)(=O)N[C@H]1COC2C1OC[C@@H]2Nc1nc(Nc2cnn(C)c2)ncc1Cl (stereo partly drawn) [Ex. 28, N-((3S,6S)-6-((5-chloro-2-((1-methyl-1H-pyrazol-4-yl)amino)pyrimidin-4-yl)amino)hexahydrofuro[3,2-b]furan-3-yl)-2-methylpropane-1-sulfonamide] | – | – | – | – | – | 6.24 | – | – | – | –
Cn1cc(Nc2ncc(Cl)c(N[C@@H]3COC4C3OC[C@@H]4NS(=O)(=O)NC3CCOC3)n2)cn1 (stereo partly drawn) [Ex. 29, 5-chloro-N-(1-methyl-1H-pyrazol-4-yl)-4-(((3R,6S)-6-((N-(tetrahydrofuran-3-yl)sulfamoyl)amino)hexahydrofuro[3,2-b]furan-3-yl)amino)pyrimidin-2-amine] | – | – | – | – | – | 7.80 | – | – | – | –
CC(C)CS(=O)(=O)N[C@@H]1COC2C1OC[C@H]2Nc1nc(Nc2cnn(C)c2)ncc1Cl (stereo partly drawn) [Ex. 32, N-((3R,6R)-6-((5-chloro-2-((1-methyl-1H-pyrazol-4-yl)amino)pyrimidin-4-yl)amino)hexahydrofuro[3,2-b]furan-3-yl)-2-methylpropane-1-sulfonamide] | – | – | – | – | – | 6.32 | – | – | – | –
Cn1cc(Nc2ncc(Cl)c(N[C@H]3COC4C3OC[C@H]4NS(=O)(=O)CC(C)(C)C)n2)cn1 (stereo partly drawn) [Ex. 7, N-((3R,6S)-6-((5-chloro-2-((1-methyl-1H-pyrazol-4-yl)amino)pyrimidin-4-yl)amino)hexahydrofuro[3,2-b]furan-3-yl)-2,2-dimethylpropane-1-sulfonamide] | – | – | – | – | – | 5.93 | – | – | – | –
Cn1cc(Nc2ncc(Cl)c(N[C@@H]3COC4C3OC[C@@H]4N3CCCC3=O)n2)cn1 (stereo partly drawn) [Ex. 22, 1-((3S,6R)-6-((5-chloro-2-((1-methyl-1H-pyrazol-4-yl)amino)pyrimidin-4-yl)amino)hexahydrofuro[3,2-b]furan-3-yl)pyrrolidin-2-one] | 10.2 | 96.9 | 1630 | 65.4 | 1.06 | – | 104 | 23.8 | 289 | 6.01
Cn1cc(Nc2ncc(Cl)c(N[C@@H]3COC4C3OC[C@@H]4NS(=O)(=O)CC(F)F)n2)cn1 (stereo partly drawn) [Ex. 36, N-((3S,6R)-6-((5-chloro-2-((1-methyl-1H-pyrazol-4-yl)amino)pyrimidin-4-yl)amino)hexahydrofuro[3,2-b]furan-3-yl)-2,2-difluoroethanesulfonamide] | – | – | – | – | – | 7.29 | – | – | – | –
Cn1cc(Nc2ncc(Cl)c(N[C@@H]3COC4C3OC[C@@H]4NS(=O)(=O)c3ccc(F)cc3)n2)cn1 (stereo partly drawn) [Ex. 8, N-((3S,6R)-6-((5-chloro-2-((1-methyl-1H-pyrazol-4-yl)amino)pyrimidin-4-yl)amino)hexahydrofuro[3,2-b]furan-3-yl)-4-fluorobenzenesulfonamide] | 38 | 90.1 | 452 | 37.2 | 1.87 | – | 68 | 36.5 | 57.3 | 30.4
Cn1cc(Nc2ncc(Cl)c(N[C@@H]3COC4C3OC[C@@H]4NS(=O)(=O)C(C)(C)C)n2)cn1 (stereo partly drawn) [Ex. 24, N-((3S,6R)-6-((5-chloro-2-((1-methyl-1H-pyrazol-4-yl)amino)pyrimidin-4-yl)amino)hexahydrofuro[3,2-b]furan-3-yl)-2-methylpropane-2-sulfonamide] | 29.3 | 127.3 | 567 | 42 | 1.4 | – | 78.6 | 31.6 | 25.6 | 68
Cn1cc(Nc2ncc(Cl)c(N[C@@H]3COC4C3OC[C@@H]4NS(=O)(=O)CC(C)(C)O)n2)cn1 (stereo partly drawn) [Ex. 41, N-((3S,6R)-6-((5-chloro-2-((1-methyl-1H-pyrazol-4-yl)amino)pyrimidin-4-yl)amino)hexahydrofuro[3,2-b]furan-3-yl)-2-hydroxy-2-methylpropane-1-sulfonamide] | 57.3 | 37.0 | 290 | 49.2 | 1.64 | – | 78.7 | 31.5 | 102 | 17
CC(CS(=O)(=O)N[C@H]1COC2C1OC[C@H]2Nc1nc(Nc2cnn(C)c2)ncc1Cl)C(F)F (stereo partly drawn) [Ex. 42, N-((3S,6R)-6-((5-chloro-2-((1-methyl-1H-pyrazol-4-yl)amino)pyrimidin-4-yl)amino)hexahydrofuro[3,2-b]furan-3-yl)-3,3-difluoro-2-methylpropane-1-sulfonamide] | 32.5 | 33.1 | 517 | 46.2 | 1.37 | – | 29.6 | 83.9 | 29.3 | 59.3
